Experiments:
[1] = in situ brain perfusion assay, Angiopep-1 dimer vs Angiopep-2; format: in vivo
Description: Volume of brain parenchymal distribution was measured using the in situ brain perfusion assay (FIG. 6). […] Parenchymal uptake of the Angiopep-1 dimer and Angiopep-2 was also measured at various concentrations in situ (FIG. 7).

[2] = relative to Angiopep-1 (250 nM); threshold defining 'efficiently transported across the BBB'; cited from earlier work

| Volume of brain parenchymal distribution ([1]; as compared to monomeric Angiopep-2, especially at lower concentrations, FIG. 6) | Molecule | Parenchymal uptake ([1]; various concentrations in situ, especially at lower concentrations (<500 nmol), compared to Angiopep-2 monomer, FIG. 7) | transport across the BBB relative to Angiopep-1 [2] [%] |
| --- | --- | --- | --- |
| Great uptake volumes | C[C@@H](O)[C@H](N)C(=O)N[C@@H](Cc1ccccc1)C(=O)N[C@@H](Cc1ccccc1)C(=O)N[C@@H](Cc1ccc(O)cc1)C(=O)NCC(=O)NCC(=O)N[C@@H](CSSC[C@H](NC(=O)CNC(=O)CNC(=O)[C@H](Cc1ccc(O)cc1)NC(=O)[C@H](Cc1ccccc1)NC(=O)[C@H](Cc1ccccc1)NC(=O)[C@@H](N)[C@@H](C)O)C(=O)N[C@@H](CCCNC(=N)N)C(=O)NCC(=O)N[C@@H](CCCCN)C(=O)N[C@@H](CCCNC(=N)N)C(=O)N[C@@H](CC(N)=O)C(=O)N[C@@H](CC(N)=O)C(=O)N[C@@H](Cc1ccccc1)C(=O)N[C@@H](CCCCN)C(=O)N[C@H](C(=O)N[C@@H](CCC(=O)O)C(=O)N[C@@H](CCC(=O)O)C(=O)N[C@@H](Cc1ccc(O)cc1)C(N)=O)[C@@H](C)O)C(=O)N[C@@H](CCCNC(=N)N)C(=O)NCC(=O)N[C@@H](CCCCN)C(=O)N[C@@H](CCCNC(=N)N)C(=O)N[C@@H](CC(N)=O)C(=O)N[C@@H](CC(N)=O)C(=O)N[C@@H](Cc1ccccc1)C(=O)N[C@@H](CCCCN)C(=O)N[C@H](C(=O)N[C@@H](CCC(=O)O)C(=O)N[C@@H](CCC(=O)O)C(=O)N[C@@H](Cc1ccc(O)cc1)C(N)=O)[C@@H](C)O [Angiopep-1 dimer] | higher transport than the Angiopep-2 monomer |  |
|  | Angiopep-6: peptide vector, SEQ ID NO:111, T F F Y G G S R G K R N N F R T E E Y (TFFYGGSRGKRNNFRTEEY) |  | 38.5 |

Source: patent US9161988B2, “Multimeric peptide conjugates and uses thereof” (Angiochem Inc., priority 2009, dated 2015)
